Assay results: patent US20100273189A1, “NON SEPARATION ASSAYS WITH SELECTIVE SIGNAL INHIBITORS” (BECKMAN COULTER, INC., priority 2009, published 2010)
Values joined by “and” are separate entries in the source; they are usually repeats but may differ in a detail not shown here. Equal entries are not always repeated.

Key:
[1] = biological target: T1, biotinylated HRP (Armoracia rusticana, UniProt P00433); assay: Model system for selection of SSIA (M280 btn-BSA-AK1-streptavidin particles + Btn-HRP:HRP); assay type: biochemical
T1 construct: purchased Roche Diagnostics, Indianapolis, Ind., USA
T1 sequence (P00433 31-338 limits assumed): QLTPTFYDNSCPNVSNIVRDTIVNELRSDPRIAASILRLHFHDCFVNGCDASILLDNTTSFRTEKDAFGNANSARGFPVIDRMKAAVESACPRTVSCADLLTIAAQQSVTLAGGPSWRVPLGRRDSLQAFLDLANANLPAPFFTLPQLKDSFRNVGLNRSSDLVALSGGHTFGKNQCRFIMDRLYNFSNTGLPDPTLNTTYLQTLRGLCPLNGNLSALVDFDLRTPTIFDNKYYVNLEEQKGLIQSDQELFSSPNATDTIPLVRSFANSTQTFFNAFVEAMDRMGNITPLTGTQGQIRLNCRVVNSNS

[2] = biological target: T2, HRP (Armoracia rusticana, UniProt P00433); assay: HRP model system on PMMA particles, with and without ascorbic acid; assay type: biochemical; details: 200 μM Ascorbate; for RLU: replicates
T2 construct: purchased Roche Diagnostics, Indianapolis, Ind., USA
T2 sequence (P00433 31-338 limits assumed): T1 sequence (P00433 31-338 limits assumed)
Method: In order to further investigate the effect of specific solid phase particles on the assays described herein, a comparison of a variety of particle types was conducted, including silica, polymethylmethacrylate (PMMA). Carboxyl modified PMMA particles (PolyAn GmbH, Berlin) were labeled with AK and biotin as described in Example 3, followed by coating with streptavidin. Silica particles were reacted with 3-aminopropylsiloxane in 1 mM acetic acid to provide an amine reactive group. The amine functional groups were reacted with AK-3 and biotin-LC-sulfoNHS, followed by coating with streptavidin.
Signal generation with Silica and PMMA particles. Assays using the HRP model system, as generally described in Example 1, were conducted on silica particles and PMMA particles, with and without ascorbic acid in the reaction mixture. The assays were run on a modified DxI instrument as described above. The assay conditions consisted of combining 45 μL BUFFER II (with or without ascorbic acid), 25 μL of particle suspension, and 15 μL of sample and incubating for 30 min. Then 100 μL of trigger solution A was added to the reaction vessel and the light intensity was recorded.

## O=C1O[C@H]([C@@H](O)CO)C(O)=C1O [Ascorbic Acid, Ascorbic acid]
[1]; Btn-HRP 0 ng/mL vs 0, SSIA 100 μM
  S/S0: 1
[1]; Btn-HRP 0 ng/mL, total HRP 500 ng/mL, SSIA final 100 μM
  B-HRP0 light intensity: 151 and 97
[1]; Btn-HRP 1 ng/mL vs 0, SSIA 100 μM
  S1/S0: 6.6 and 7.8
[1]; Btn-HRP 1 ng/mL, total HRP 500 ng/mL, SSIA final 100 μM
  B-HRP1 light intensity: 995 and 757
[1]; Btn-HRP 10 ng/mL vs 0, SSIA 100 μM
  S2/S0: 216.2 and 171.6
[1]; Btn-HRP 10 ng/mL, total HRP 500 ng/mL, SSIA final 100 μM
  B-HRP10 light intensity: 32,568 and 16,641
[1]; Btn-HRP 100 ng/mL vs 0, SSIA 100 μM
  S3/S0: 30222.2 and 38064.9
[1]; Btn-HRP 100 ng/mL, total HRP 500 ng/mL, SSIA final 100 μM
  B-HRP100 light intensity: 4,553,473 and 3,692,291
[1]; Btn-HRP 250 ng/mL vs 0, SSIA 100 μM
  S4/S0: 59176.1 and 62228.3
[1]; Btn-HRP 250 ng/mL, total HRP 500 ng/mL, SSIA final 100 μM
  B-HRP250 light intensity: 8,915,869 and 6,036,145
[1]; SSIA 100 μM, conclusion in words
  effect in the model system / utility as SSIA: demonstrating utility as SSIA
[2]; HRP 0 ng/ml
  Mean RLU: 20,135 RLU
  S/S0: 1.0
  RLU: 20,656 RLU and 19,436 RLU and 20,312 RLU
[2]; HRP 1 ng/ml
  Mean RLU: 118,472 RLU
  S/S0: 5.9
  RLU: 116,596 RLU and 116,308 RLU and 122,512 RLU
[2]; HRP 10 ng/ml
  Mean RLU: 2,061,780 RLU
  S/S0: 102.4
  RLU: 2,066,824 RLU and 2,171,080 RLU and 1,947,436 RLU
[2]; HRP 100 ng/ml
  Mean RLU: 12,093,261 RLU
  S/S0: 600.6
  RLU: 12,257,256 RLU and 11,862,048 RLU and 12,160,480 RLU
[2]; HRP 250 ng/ml
  Mean RLU: 12,565,744 RLU
  S/S0: 624.1
  RLU: 12,575,032 RLU and 12,552,012 RLU and 12,570,188 RLU
